Paper PMC10960024, “Diindoles produced from commensal microbiota metabolites function as endogenous CAR/Nr1i3 ligands” (Nature Communications, 2024)

Target: T1, hCAR (Homo sapiens, UniProt Q14994)
T1 construct: The human CAR LBD (Lys^108 – Ser^352) was amplified by PCR from cDNA; HIS6; made in house; host or cells: E. coli BL21(DE3)
T1 sequence (Q14994 108-352): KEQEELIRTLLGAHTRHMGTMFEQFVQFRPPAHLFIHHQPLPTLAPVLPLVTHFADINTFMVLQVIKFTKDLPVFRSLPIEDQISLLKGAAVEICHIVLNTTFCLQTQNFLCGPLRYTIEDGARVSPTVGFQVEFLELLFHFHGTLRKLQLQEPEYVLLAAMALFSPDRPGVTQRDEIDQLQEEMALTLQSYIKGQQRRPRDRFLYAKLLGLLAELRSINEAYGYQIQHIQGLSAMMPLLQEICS
Experiment: Bottom-up HDX-MS of hCAR with ligand
Format: binding
Details: 100 µM ligand
Procedure: Human CAR protein was prepared at 10 µM in 100 mM ammonium acetate pH 7.25 and diluted into either equilibration buffer (10 mM phosphate buffer, pH 7.5) or deuterated reaction buffer (10 mM phosphate buffer, 150 mM NaCl, pH 7.5 in D2O). After labeling times of 1, 10 or 30 min at 25 °C, samples were mixed with equal volumes of quench buffer (100 mM phosphate buffer, pH 2.5) at 0 °C. […] HDX-MS was performed using a commercial Waters HDX system (M-class ACQUITY UPLC and Water Cyclic IMS Mass Spectrometer). Leucine enkephalin was used for mass correction, and all time points were carried out in triplicate. Samples were digested using an Enzymate BEH Pepsin column (2.1 × 30 mm, Waters) at 15 °C. Peptides were desalted on an ACQUITY UPLC BEH C18 VanGuard Pre-column (2.1 × 5 mm, Waters) and separated using an ACQUITY UPLC BEH C18 column (100 × 1 mm, Waters). ProteinLynx Global server (PLGS) and DynamX software was used for peptide identification and deuterium uptake analysis, respectively. PyMOL 2.5 was used for structural visualization.

## CC(c1c[nH]c2ccccc12)c1c[nH]c2ccccc12 [DIE, 3,3’-diindolylethane]
  deuterium uptake change, residues 235–243 (H12/AF2): increased uptake
  deuterium uptake difference, amino acids 217–234 (H11): < 10%
  difference in deuterium uptake compared to apo hCAR, amino acids 51–65 (H3): > 20%
